These results are taken from PMC12584634, “Carglumic acid and mesalazine as potential anti-mycobacterial agents: a spectroscopic study for repurposing drugs against Mycobacterium tuberculosis targeting its essential enzyme ThyX” (Microbiology Spectrum, 2025).

The structures appear in SMILES notation.

For this experiment, the target named is ThyX (Rv2754c), flavin-dependent thymidylate synthase (Mycobacterium tuberculosis, UniProt P9WG57). The experiment can be described thus: intrinsic fluorescence quenching, modified Stern-Volmer. Type of experiment: binding. To be noted: 303 K, 5 µM protein, n ~1, double-log. An excerpt: intrinsic fluorescence quenching, modified Stern-Volmer on ThyX (Rv2754c), flavin-dependent thymidylate synthase
Sequence of ThyX (Rv2754c), flavin-dependent thymidylate synthase (P9WG57 whole entry, looked up): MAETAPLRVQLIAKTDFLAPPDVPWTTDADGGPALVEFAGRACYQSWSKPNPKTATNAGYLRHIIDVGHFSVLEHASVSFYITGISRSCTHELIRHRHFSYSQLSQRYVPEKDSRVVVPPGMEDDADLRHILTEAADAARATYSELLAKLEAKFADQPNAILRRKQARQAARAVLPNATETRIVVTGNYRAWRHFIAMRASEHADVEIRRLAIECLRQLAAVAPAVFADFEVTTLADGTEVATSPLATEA

`Nc1ccc(C(=O)O)c(O)c1` [para-amino salicylic acid, reference compound]: the “Ka (× 10^6 mol^-1)” value (positive control, text prints unit as M^−1s^−1) is 3.44 × 10^6 mol^−1. Turning to `Nc1ccc(O)c(C(=O)O)c1` [mesalazine], the “Ka (× 10^6 mol^-1)” value (PBS pH 7.4, excitation 280 nm) is 4.73 × 10^6 mol^−1.

Turning to `NC(=O)N[C@@H](CCC(=O)O)C(=O)O` [carglumic acid], the “Ka (× 10^6 mol^-1)” value (PBS pH 7.4, excitation 280 nm) is 4.28 × 10^6 mol^−1.
